Assay results from US11267811B2, “Small molecule inhibitors of galectin-3” (BRISTOL-MYERS SQUIBB COMPANY, priority 2017, dated 2022).

What follows are molecules tested against His-tagged recombinant human Gal-3 (hGal-3) (Homo sapiens (Human), UniProt P17931) (assay: Gal-3 HTRF assay (His-tagged hGal-3 binding to B-ASF)). Settings: HTRF, hGal-3 15 nM, B-ASF 15 nM; read-out: hGal-3 IC50.
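Note: compounds preincubated 30 min with hGal-3, then 1 h with B-ASF, detection via terbium anti-His antibody and streptavidin d2. Control with B-ASF counts as full signal, omitting B-ASF as background.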

His-tagged recombinant human Gal-3 (hGal-3), sequence (P17931 whole entry): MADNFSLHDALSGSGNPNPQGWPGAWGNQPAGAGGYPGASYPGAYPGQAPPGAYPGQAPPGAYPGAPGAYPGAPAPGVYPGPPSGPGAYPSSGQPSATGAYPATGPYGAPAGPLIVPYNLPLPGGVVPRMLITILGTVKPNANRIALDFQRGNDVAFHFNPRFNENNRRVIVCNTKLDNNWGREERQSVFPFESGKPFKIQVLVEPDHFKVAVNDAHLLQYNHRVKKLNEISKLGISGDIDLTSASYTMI

Row | IC50 [nM] | Structure (SMILES)
1 | 1040 | OC[C@H]1O[C@@H](n2nncc2-c2cccc(Cl)c2)[C@H](F)[C@@H](n2cc(-c3cc(F)c(F)c(F)c3)nn2)[C@H]1O [Example 18, (2R,3R,4S,5R,6R)-6-(5-(3-chlorophenyl)-1H-1,2,3-triazol-1-yl)-5-fluoro-2-(hydroxymethyl)-4-(4-(3,4,5-trifluorophenyl)-1H-1,2,3-triazol-1-yl)tetrahydro-2H-pyran-3-ol]
2 | 708 | OC[C@H]1O[C@@H](c2ncnn2-c2ccccc2)[C@H](O)[C@@H](n2cc(-c3cc(F)c(F)c(F)c3)nn2)[C@H]1O [Example 20]
3 | 79 | OC[C@H]1O[C@@H](c2ncnn2-c2ccc(Cl)c(Cl)c2)[C@H](O)[C@@H](n2cc(-c3cc(F)c(F)c(F)c3)nn2)[C@H]1O [Example 21]
4 | 1110 | OC[C@H]1O[C@@H](c2ncnn2Cc2cccc(Cl)c2)[C@H](O)[C@@H](n2cc(-c3cc(F)c(F)c(F)c3)nn2)[C@H]1O [Example 22]
5 | 150 | COc1cccc(-n2ncnc2[C@@H]2O[C@H](CO)[C@H](O)[C@H](n3cc(-c4cc(F)c(F)c(F)c4)nn3)[C@H]2O)c1 [Example 23]
6 | 480 | OC[C@H]1O[C@@H](c2ncnn2-c2ccccc2Cl)[C@H](O)[C@@H](n2cc(-c3cc(F)c(F)c(F)c3)nn2)[C@H]1O [Example 24]
7 | 560 | OC[C@H]1O[C@@H](c2ncnn2-c2ccc(C(F)(F)F)cc2)[C@H](O)[C@@H](n2cc(-c3cc(F)c(F)c(F)c3)nn2)[C@H]1O [Example 25]
8 | 230 | Cc1cccc(-n2ncnc2[C@@H]2O[C@H](CO)[C@H](O)[C@H](n3cc(-c4cc(F)c(F)c(F)c4)nn3)[C@H]2O)c1 [Example 26]
9 | 1470 | OC[C@H]1O[C@@H](c2ncnn2Cc2ccccc2)[C@H](O)[C@@H](n2cc(-c3cc(F)c(F)c(F)c3)nn2)[C@H]1O [Example 28]
10 | 1560 | OC[C@H]1O[C@@H](c2ncnn2-c2c(F)cccc2F)[C@H](O)[C@@H](n2cc(-c3cc(F)c(F)c(F)c3)nn2)[C@H]1O [Example 29]
11 | 1040 | O=C(O)c1cccc(-n2ncnc2[C@@H]2O[C@H](CO)[C@H](O)[C@H](n3cc(-c4cc(F)c(F)c(F)c4)nn3)[C@H]2O)c1 [Example 31]
12 | 590 | O=C(O)c1ccc(-n2ncnc2[C@@H]2O[C@H](CO)[C@H](O)[C@H](n3cc(-c4cc(F)c(F)c(F)c4)nn3)[C@H]2O)cc1 [Example 32]
13 | 790 | O=C(O)c1ccccc1-n1ncnc1[C@@H]1O[C@H](CO)[C@H](O)[C@H](n2cc(-c3cc(F)c(F)c(F)c3)nn2)[C@H]1O [Example 33]
14 | 700 | O=[N+]([O-])c1cccc(-n2ncnc2[C@@H]2O[C@H](CO)[C@H](O)[C@H](n3cc(-c4cc(F)c(F)c(F)c4)nn3)[C@H]2O)c1 [Example 35]
15 | 220 | OC[C@H]1O[C@@H](c2ncnn2-c2cccc(C(F)(F)F)c2)[C@H](O)[C@@H](n2cc(-c3cc(F)c(F)c(F)c3)nn2)[C@H]1O [Example 36]
16 | 210 | OC[C@H]1O[C@@H](c2ncnn2-c2cc(F)cc(F)c2)[C@H](O)[C@@H](n2cc(-c3cc(F)c(F)c(F)c3)nn2)[C@H]1O [Example 37]
17 | 390 | OC[C@H]1O[C@@H](c2ncnn2-c2cccc(F)c2)[C@H](O)[C@@H](n2cc(-c3cc(F)c(F)c(F)c3)nn2)[C@H]1O [Example 38]
18 | 550 | Cc1ccc(-n2ncnc2[C@@H]2O[C@H](CO)[C@H](O)[C@H](n3cc(-c4cc(F)c(F)c(F)c4)nn3)[C@H]2O)cc1 [Example 39]
19 | 1020 | OC[C@H]1O[C@@H](c2ncnn2-c2ccccc2F)[C@H](O)[C@@H](n2cc(-c3cc(F)c(F)c(F)c3)nn2)[C@H]1O [Example 40]
20 | 110 | OC[C@H]1O[C@@H](c2ncnn2-c2cc(Cl)cc(Cl)c2)[C@H](O)[C@@H](n2cc(-c3cc(F)c(F)c(F)c3)nn2)[C@H]1O [Example 41]

The next lines start with the molecule.

Row | Structure (SMILES) | IC50 [nM]
21 | OC[C@H]1O[C@@H](n2nncc2-c2ccccc2)[C@H](O)[C@@H](n2cc(-c3cc(F)c(F)c(F)c3)nn2)[C@H]1O [Example 3] | 617
22 | OC[C@H]1O[C@@H](n2nncc2-c2ccc3c(c2)OCO3)[C@H](O)[C@@H](n2cc(-c3cc(F)c(F)c(F)c3)nn2)[C@H]1O [Example 4] | 386
23 | OC[C@H]1O[C@@H](n2nncc2-c2ccc3[nH]ncc3c2)[C@H](O)[C@@H](n2cc(-c3cc(F)c(F)c(F)c3)nn2)[C@H]1O [Example 5] | 640
24 | OC[C@H]1O[C@@H](n2nncc2-c2ccc3cn[nH]c3c2)[C@H](O)[C@@H](n2cc(-c3cc(F)c(F)c(F)c3)nn2)[C@H]1O [Example 6] | 494
25 | OC[C@H]1O[C@@H](n2nncc2-c2ccc(Cl)cc2)[C@H](O)[C@@H](n2cc(-c3cc(F)c(F)c(F)c3)nn2)[C@H]1O [Example 7] | 329
26 | Cc1nc2ccc(-c3cnnn3[C@@H]3O[C@H](CO)[C@H](O)[C@H](n4cc(-c5cc(F)c(F)c(F)c5)nn4)[C@H]3O)cc2s1 [Example 8] | 158
27 | COc1cccc(-c2cnnn2[C@@H]2O[C@H](CO)[C@H](O)[C@H](n3cc(-c4cc(F)c(F)c(F)c4)nn3)[C@H]2O)c1 [Example 9] | 158
28 | CC(C)(C)c1cnnn1[C@@H]1O[C@H](CO)[C@H](O)[C@H](n2cc(-c3cc(F)c(F)c(F)c3)nn2)[C@H]1O [Example 10] | 366
29 | O=C(O)c1nnn([C@@H]2O[C@H](CO)[C@H](O)[C@H](n3cc(-c4cc(F)c(F)c(F)c4)nn3)[C@H]2O)c1-c1ccc(Cl)c(Cl)c1 [Example 11] | 184
30 | CCO[C@@H]1[C@@H](n2cc(-c3cc(F)c(F)c(F)c3)nn2)[C@@H](O)[C@@H](CO)O[C@H]1n1nncc1-c1cccc(Cl)c1 [Example 12, (2R,3R,4S,5R,6R)-6-(5-(3-chlorophenyl)-1H-1,2,3-triazol-1-yl)-5-ethoxy-2-(hydroxymethyl)-4-(4-(3,4,5-trifluorophenyl)-1H-1,2,3-triazol-1-yl)tetrahydro-2H-pyran-3-ol] | 970
31 | COCCO[C@@H]1[C@@H](n2cc(-c3cc(F)c(F)c(F)c3)nn2)[C@@H](O)[C@@H](CO)O[C@H]1n1nncc1-c1cccc(Cl)c1 [Example 13] | 571
32 | O=C(O)CO[C@@H]1[C@@H](n2cc(-c3cc(F)c(F)c(F)c3)nn2)[C@@H](O)[C@@H](CO)O[C@H]1n1nncc1-c1cccc(Cl)c1 [Example 14] | 8430
33 | OC[C@H]1O[C@@H](n2nncc2-c2ccc(Cl)c(Cl)c2)C[C@@H](n2cc(-c3cc(F)c(F)c(F)c3)nn2)[C@H]1O [Example 15, (2R,3R,4R,6R)-6-(5-(3,4-dichlorophenyl)-1H-1,2,3-triazol-1-yl)-2-(hydroxymethyl)-4-(4-(3,4,5-trifluorophenyl)-1H-1,2,3-triazol-1-yl)tetrahydro-2H-pyran-3-ol] | 880
34 | COc1cccc(-c2cnnn2[C@H]2C[C@@H](n3cc(-c4cc(F)c(F)c(F)c4)nn3)[C@@H](O)[C@@H](CO)O2)c1 [Example 16] | 609
35 | OC[C@H]1O[C@@H](n2nncc2-c2ccccc2)C[C@@H](n2cc(-c3cc(F)c(F)c(F)c3)nn2)[C@H]1O [Example 17] | 902

Same assay, conditions: read-out: hGal3 IC50

Row | IC50 [nM] | Structure (SMILES)
36 | 80 | CO[C@@H]1[C@@H](n2cc(-c3cc(F)c(F)c(F)c3)nn2)[C@@H](O)[C@@H](CO)O[C@H]1c1nncn1-c1ccc(Cl)c(Cl)c1 [Ex 283]
37 | 10000 | Cn1nccc1[C@@H]1O[C@H](CO)[C@H](O)[C@H](n2cc(-c3cc(F)c(F)c(F)c3)nn2)[C@H]1O [Ex 286]
38 | 8100 | OC[C@H]1O[C@@H](c2oncc2-c2cccc(Cl)c2)[C@H](O)[C@@H](n2cc(-c3cc(F)c(F)c(F)c3)nn2)[C@H]1O [Ex 289]
